What was measured:
TbPRMT6 [1] = molecular target: T1, TbPRMT6 (Trypanosoma brucei, UniProt Q57U70); assay: X-ray crystal structure, […] A; settings: co-crystallised with three-fold molar excess SAH; 100 mM citrate pH 5.5, 20% PEG3000, 293 K; SAM-binding pocket
T1 construct: gene Tb05.6E7.1000; full-length, E. coli BL21(DE3), modified pET28a, N-terminal 6xHis cut by TEV protease; 41 kDa monomer, homodimer; residues 1-24 and 228-229 disordered in crystal
T1 sequence (Q57U70 1-368): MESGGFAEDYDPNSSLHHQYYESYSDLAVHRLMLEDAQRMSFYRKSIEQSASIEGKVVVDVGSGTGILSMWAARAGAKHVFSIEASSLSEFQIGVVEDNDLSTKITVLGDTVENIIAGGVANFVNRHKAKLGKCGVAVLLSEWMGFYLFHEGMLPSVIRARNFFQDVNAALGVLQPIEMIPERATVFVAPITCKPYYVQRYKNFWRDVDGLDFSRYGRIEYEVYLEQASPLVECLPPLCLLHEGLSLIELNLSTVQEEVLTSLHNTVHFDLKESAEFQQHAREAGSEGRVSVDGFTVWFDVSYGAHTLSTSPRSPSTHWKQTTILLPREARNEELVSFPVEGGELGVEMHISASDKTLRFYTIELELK

TbPRMT6 [2] = molecular target: T1, TbPRMT6; assay: in vitro methylation of Trx-H4tail, western blot for asymmetric dimethyl H4R3; assay type: biochemical; settings: 40 uM SAM, 1 ug Trx-H4tail (bovine histone H4 residues) as co-substrate; 30 mM Tris pH 8.0, 100 mM NaCl, 1 mM EDTA, 5 mM DTT, 37 C, 12 h

SMILES: Nc1ncnc2c1ncn2[C@@H]1O[C@H](CSCC[C@H](N)C(=O)O)[C@@H](O)[C@H]1O [SAH, S-adenosyl-homocysteine]
- X-ray crystal structure, 2.35 A (TbPRMT6 [1]): Structures of apo-TbPRMT6 and in complex with SAH (SAH-TbPRMT6) were resolved and refined

SMILES: C[S+](CC[C@H](N)C(=O)O)C[C@H]1O[C@@H](n2cnc3c(N)ncnc32)[C@H](O)[C@@H]1O (stereo partly drawn) [SAM, S-adenosyl-L-methionine]
- in vitro methylation of Trx-H4tail, western blot for asymmetric dimethyl H4R3 (TbPRMT6 [2]): our result also showed that TbPRMT6 can methylate bovine histone H4R3

— article PMC3911951, “Crystal Structure of Arginine Methyltransferase 6 from Trypanosoma brucei” (PLoS ONE, 2014)
